Test results reported in US20200046703A1, “COMPOSITIONS AND METHODS FOR TREATMENT OF THE SIDE-EFFECTS ASSOCIATED WITH ADMINISTRATION OF THERAPEUTIC AGENTS” (ASYMMETRIC THERAPEUTICS, LLC, priority 2018, published 2020).
≈ marks a conversion by molar mass, not a printed value.

Legend:
proliferating HPEK cells = assay: Proliferating HPEK cell viability with/without 5-FU; assay type: cell-based, human; details: for relative cell viability (AVG): 120 hours; for Relative Protection against 5-FU toxicity / Relative Growth in the presence of 5-FU: HPEK proliferating cells; for Relative Protection against 5-FU toxicity: fraction of viability loss prevented; for Relative Growth in the presence of 5-FU: viability with 5-FU divided by viability without 5-FU
Description: (§1) In another set of experiments, the results of which are shown in Table 2, proliferating HPEK cells, commonly used to assess skin tissue toxicity, were exposed to the clinically-relevant dose of 10 μM of 5-FU and different concentrations of oxypurinol, either alone or with different concentrations of adenine or uracil, using standard tissue culture methods and incubated at 37° C. Oxypurinol concentrations of 0.03 mM, 0.1 mM, and 0.3 mM were tested. Adenine and uracil concentrations of 0.1 mM and 0.3 mM were tested. The relative viability of the cells was determined after 120 hours.

confluent HPEK cells = assay: Confluent HPEK cell viability with/without 5-FU; assay type: cell-based, human; details: for relative cell viability (AVG): 120 hours; for Relative Protection against 5-FU toxicity / Relative Growth in the presence of 5-FU: HPEK confluent cells; for Relative Protection against 5-FU toxicity: fraction of viability loss prevented; for Relative Growth in the presence of 5-FU: viability with 5-FU divided by viability without 5-FU
Description: Oxypurinol and allopurinol concentrations of 0.3 mM, 1.0 mM, and 3.0 mM, which are ten times higher than those used in the first set of experiments, were tested. An adenine concentration of 0.3 mM, which was the higher concentration used in the first set of experiments, was tested. The relative viability of the cells was determined after 120 hours.

Solubility of oxypurinol = assay type: physicochemical; details: in vitro; in the protective formulation; read-out: maximum in vitro solubility / upper limit of solubility
marrow cells = details: about a 30-fold excess; in patients; cited from earlier work
proliferating HGEP cells = assay: Proliferating HGEP cell viability with/without 5-FU; assay type: cell-based, human; details: for relative cell viability (AVG): 120 hours
Description: as §1, with “one” for “another”, “1,” for “2,”, “HGEP” for “HPEK”, “oral mucosal” for “skin tissue”

confluent NHEK cells = assay: Confluent NHEK cell viability with/without 5-FU; assay type: cell-based, human; details: for relative cell viability (AVG): 120 hours; for Relative Protection against 5-FU toxicity: fraction of viability loss prevented
Description: In yet another set of experiments, the results of which are shown in Table 4, confluent NHEK cells were exposed to the clinically-relevant dose of 10 μM of 5-FU and different concentrations of sodium hydroxide, oxypurinol, or allopurinol using standard tissue culture methods and incubated at 37° C. Sodium hydroxide concentrations of 1 mM, 2 mM, 3 mM, and 4 mM were tested. Oxypurinol and allopurinol concentrations of 0.1 mM, 0.3 mM, 1.0 mM, and 3.0 mM were tested, both in the presence and in the absence of 10 μM of 5-FU. The relative viability of the cells was determined after 120 hours. The sodium hydroxide trials were only performed to serve as a control.

[1] = concentrations of 0.1 mM and 0.3 mM
[2] = 0.3 mM, with 5-FU 10 μM, listed as oxypurinol
[3] = 1.0 mM, with 5-FU 10 μM, listed as oxypurinol
[4] = 3.0 mM, with 5-FU 10 μM, listed as oxypurinol

O=c1nc2[nH][nH]cc-2c(=O)[nH]1 [Oxypurinol, oxypurinol]
relative cell viability (AVG) (proliferating HPEK cells; 0.03 mM, no 5-FU): 1.0763
relative cell viability (AVG) (proliferating HPEK cells; 0.03 mM, with 5-FU 10 μM): 0.6903
relative cell viability (AVG) (proliferating HPEK cells; 0.1 mM, no 5-FU): 0.7961
relative cell viability (AVG) (proliferating HPEK cells; 0.1 mM, with 5-FU 10 μM): 0.7961
relative cell viability (AVG) (proliferating HPEK cells; 0.3 mM, no 5-FU): 1.0201
relative cell viability (AVG) (proliferating HPEK cells; 0.3 mM, with 5-FU 10 μM): 0.8635
Relative Protection against 5-FU toxicity (proliferating HPEK cells; 0.03 mM): 0.1133
Relative Growth in the presence of 5-FU (proliferating HPEK cells; 0.03 mM): 0.6414
Relative Protection against 5-FU toxicity (proliferating HPEK cells; 0.1 mM): 0.4163
Relative Growth in the presence of 5-FU (proliferating HPEK cells; 0.1 mM): 1.0000
Relative Protection against 5-FU toxicity (proliferating HPEK cells; 0.3 mM): 0.6092
Relative Growth in the presence of 5-FU (proliferating HPEK cells; 0.3 mM): 0.8465
effect on cell viability in the presence of 5-FU (proliferating HPEK cells; [1]): protective effect
effect on cell viability in the absence of 5-FU (proliferating HPEK cells; range of 0.03 mM to 0.3 mM): minimal effect
relative cell viability (AVG) (confluent HPEK cells; 0.3 mM, no 5-FU): 1.0183
relative cell viability (AVG) (confluent HPEK cells; 0.3 mM, with 5-FU 10 μM): 0.7226
relative cell viability (AVG) (confluent HPEK cells; [2]): 0.72
relative cell viability (AVG) (confluent HPEK cells; 1.0 mM, no 5-FU): 1.0706
relative cell viability (AVG) (confluent HPEK cells; 1.0 mM, no 5-FU, listed as oxypurinol): 1.07
relative cell viability (AVG) (confluent HPEK cells; 1.0 mM, with 5-FU 10 μM): 0.7509
relative cell viability (AVG) (confluent HPEK cells; [3]): 0.75
relative cell viability (AVG) (confluent HPEK cells; 3.0 mM, no 5-FU): 0.8351
relative cell viability (AVG) (confluent HPEK cells; 3.0 mM, no 5-FU, listed as oxypurinol): 0.835
relative cell viability (AVG) (confluent HPEK cells; 3.0 mM, with 5-FU 10 μM): 0.8147
relative cell viability (AVG) (confluent HPEK cells; [4]): 0.81
protection from 5-FU toxicity compared with allopurinol (confluent HPEK cells; HPEK cells, FIG. 1, across the range of tested concentrations): significantly better
Relative Protection against 5-FU toxicity (confluent HPEK cells; 0.3 mM): 0.2249
Relative Growth in the presence of 5-FU (confluent HPEK cells; 0.3 mM): 0.7096
Relative Protection against 5-FU toxicity (confluent HPEK cells; 1.0 mM): 0.3039
Relative Growth in the presence of 5-FU (confluent HPEK cells; 1.0 mM): 0.7013
Relative Protection against 5-FU toxicity (confluent HPEK cells; 3.0 mM): 0.4822
Relative Growth in the presence of 5-FU (confluent HPEK cells; 3.0 mM): 0.9755
oxypurinol toxicity (confluent HPEK cells; HPEK, up to about 3 mM): no evidence of oxypurinol toxicity
effect on cell viability in the presence of 5-FU (confluent HPEK cells; concentration range of 0.3 mM to 3.0 mM): protective effect
preservation of growth, with versus without 5-FU (confluent HPEK cells; oxypurinol at 3 mM, 5-FU 10 μM): 97.5%
solubility (Solubility of oxypurinol): ~3000 µM (≈ 456 µg/mL)
protection of marrow cells from 5-FU toxicity (marrow cells): completely protect marrow cells from 5-FU toxicity
relative cell viability (AVG) (proliferating HGEP cells; 0.03 mM, no 5-FU): 0.8792
relative cell viability (AVG) (proliferating HGEP cells; 0.03 mM, with 5-FU 10 μM): 0.6441
relative cell viability (AVG) (proliferating HGEP cells; 0.1 mM, no 5-FU): 0.7134
relative cell viability (AVG) (proliferating HGEP cells; 0.1 mM, with 5-FU 10 μM): 0.7540
relative cell viability (AVG) (proliferating HGEP cells; 0.3 mM, no 5-FU): 0.6367
relative cell viability (AVG) (proliferating HGEP cells; 0.3 mM, with 5-FU 10 μM): 0.8925
effect on cell viability in the absence of 5-FU (proliferating HGEP cells; 0.03 to 0.3 mM): negative effect
effect on cell viability in the presence of 5-FU (proliferating HGEP cells; [1]): protective effect
effect on cell viability in the presence of 5-FU (confluent NHEK cells; 0.1 mM to 3.0 mM): protective effect
relative cell viability (AVG) (confluent NHEK cells; 0.1 mM, no 5-FU): 0.8884
relative cell viability (AVG) (confluent NHEK cells; 0.1 mM, with 5-FU 10 μM): 0.5818
relative cell viability (AVG) (confluent NHEK cells; 0.1 mM, with 5-FU 10 μM, listed as oxypurinol): 0.58
relative cell viability (AVG) (confluent NHEK cells; 0.3 mM, no 5-FU): 0.9059
relative cell viability (AVG) (confluent NHEK cells; 0.3 mM, with 5-FU 10 μM): 0.5881
relative cell viability (AVG) (confluent NHEK cells; [2]): 0.59
relative cell viability (AVG) (confluent NHEK cells; 1.0 mM, no 5-FU): 0.9580
relative cell viability (AVG) (confluent NHEK cells; 1.0 mM, with 5-FU 10 μM): 0.5965
relative cell viability (AVG) (confluent NHEK cells; [3]): 0.60
Relative Growth in the presence of 5-FU (confluent NHEK cells; 3.0 mM, NHEK, FIG. 2): over 73%
relative cell viability (AVG) (confluent NHEK cells; 3.0 mM, no 5-FU): 0.9784
relative cell viability (AVG) (confluent NHEK cells; 3.0 mM, with 5-FU 10 μM): 0.7165
relative cell viability (AVG) (confluent NHEK cells; [4]): 0.72
protection from 5-FU toxicity compared with allopurinol (confluent NHEK cells; NHEK cells, FIG. 2, across the range of tested concentrations): significantly better
Relative Protection against 5-FU toxicity (confluent NHEK cells; NHEK, 0.1 mM): 0.2834
Relative Growth in the presence of 5-FU (confluent NHEK cells; NHEK, 0.1 mM, viability with 5-FU divided by viability without 5-FU): 0.6549
Relative Protection against 5-FU toxicity (confluent NHEK cells; NHEK, 0.3 mM): 0.2941
Relative Growth in the presence of 5-FU (confluent NHEK cells; NHEK, 0.3 mM, viability with 5-FU divided by viability without 5-FU): 0.6492
Relative Protection against 5-FU toxicity (confluent NHEK cells; NHEK, 1.0 mM): 0.3085
Relative Growth in the presence of 5-FU (confluent NHEK cells; NHEK, 1.0 mM, viability with 5-FU divided by viability without 5-FU): 0.6226
Relative Protection against 5-FU toxicity (confluent NHEK cells; NHEK, 3.0 mM): 0.5142
Relative Growth in the presence of 5-FU (confluent NHEK cells; NHEK, 3.0 mM, viability with 5-FU divided by viability without 5-FU): 0.7323
oxypurinol toxicity (confluent NHEK cells; NHEK, up to about 3 mM): no evidence of oxypurinol toxicity
effect on cell viability in the absence of 5-FU (confluent NHEK cells; range of 0.1 mM to 3.0 mM): small negative effect

O=c1cc[nH]c(=O)[nH]1 [Uracil, uracil, reference compound]
relative cell viability (AVG) (proliferating HPEK cells; 0.1 mM, with 5-FU 10 μM): 0.6479
relative cell viability (AVG) (proliferating HPEK cells; 0.3 mM, with 5-FU 10 μM): 0.6350
relative cell viability (AVG) (confluent HPEK cells; 0.3 mM, no 5-FU): 1.3781
relative cell viability (AVG) (confluent HPEK cells; 0.3 mM, with 5-FU 10 μM): 0.6482
relative cell viability (AVG) (proliferating HGEP cells; 0.1 mM, with 5-FU 10 μM): 0.6060
relative cell viability (AVG) (proliferating HGEP cells; 0.3 mM, with 5-FU 10 μM): 0.5182
